Measured values as given in BindingDB's records for doi:10.1016/j.ejmech.2018.10.063 (Saint Petersburg State University, 2019).

Assay: Inhibition of Influenza A virus (A/Puerto Rico/8/34(H1N1)) PA endonuclease infected in MDCK cells assessed as reduction in virus titer treated with cells for 1 hr prior to viral infection for 1 hr followed by compound washout and subsequent compound addition measured after 48 hrs by hemagglutination test

Structure (SMILES) | IC50 [µM]
Fc1ccc(N2CCN=C2c2ccc(C3=NCCN3c3ccc(F)cc3)cc2)cc1 | 12
c1ccc(N2CCN=C2c2ccc(C3=NCCN3)cc2)cc1 | 30
COc1ccc(N2CCN=C2c2ccc(C3=NCCN3)cc2)cc1 | 44
c1cnc(N2CCN=C2c2ccc(C3=NCCN3c3cnccn3)cc2)cn1 | > 809
C[C@@H](N)C12CC3CC(CC(C3)C1)C2 [(alpha-methyl-1-adamantyl)methylamine] | 11
Clc1ccc(N2CCN=C2c2ccc(C3=NCCN3c3ccc(Cl)cc3)cc2)cc1 | 5
FC(F)(F)c1ccc(N2CCN=C2c2ccc(C3=NCCN3c3ccc(C(F)(F)F)cn3)cc2)nc1 | 103
c1ccc(N2CCN=C2c2ccc(C3=NCCN3c3ccccn3)cc2)nc1 | 35
c1cncc(N2CCN=C2c2ccc(C3=NCCN3c3cccnc3)cc2)c1 | 68
COc1ccc(N2CCN=C2c2ccc(C3=NCCN3c3ccc(OC)cc3)cc2)cc1 | 16
c1ccc(N2CCN=C2c2ccc(C3=NCCN3c3ccccc3)cc2)cc1 | 77
Fc1ccc(N2CCN=C2c2ccc(C3=NCCN3)cc2)cc1 | 65
